Measured values reported in patent US20070264674A1, “Cytochrome P450 Induction Assay” (priority 2004, published 2007).

Legend:
hCAR [1] = target: T1, hCAR (Homo sapiens, UniProt Q14994); experiment: SEAP reporter assay in HepG2 cells co-transfected with human CAR; type: cell-based; design: A 1047 bp nucleic acid encoding the human CAR (hCAR) obtained from the RT-PCR; expressed in transfected cells; host or cells: HepG2 (transient co-transfection with the reporter plasmid); conditions: HepG2 + human CAR (constitutive activation); 48 h; 200 μM Omeprazole, 6 μM Clotrimazole, 125 nM Hyperforin, 12.5 μM Lovastatin, 100 μM N-propyl-p-hydroxy-benzoate
T1 sequence (Q14994 1-348 isoform Q14994-2): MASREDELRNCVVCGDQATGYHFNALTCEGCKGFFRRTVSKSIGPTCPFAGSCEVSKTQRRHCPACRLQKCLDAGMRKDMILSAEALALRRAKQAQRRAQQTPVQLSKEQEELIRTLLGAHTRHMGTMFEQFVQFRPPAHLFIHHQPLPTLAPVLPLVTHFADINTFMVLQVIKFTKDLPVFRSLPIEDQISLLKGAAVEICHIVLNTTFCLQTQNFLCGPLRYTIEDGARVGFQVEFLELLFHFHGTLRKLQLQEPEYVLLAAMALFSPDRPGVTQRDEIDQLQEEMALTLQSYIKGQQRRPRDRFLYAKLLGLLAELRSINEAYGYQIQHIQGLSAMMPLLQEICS
Experimental: The NR donor plasmid encoding the human CAR was made as follows. The human CAR was made by RT-PCR from a human liver mRNA preparation. […] The RT-PCR conditions were 15 seconds at 94° C., 30 cycles of 94° C. for 30 seconds followed by 68° C. for 3 minutes, then 68° C. for 3 minutes, and storage at 4° C.
Controls omitted the DNA encoding the human CAR. Additional controls consisted of DNA encoding the human PXR of the previous example.
After incubating the cells 48 hours at 37° C., the medium form wells were collected for SEAP assays. The assays for SEAP expression were performed with Tropix Phospha-Light system kit.

hCAR [2] = target: T1, hCAR; experiment: Primary rat hepatocytes cotransfected with clone 102-SEAP and hCAR; type: cell-based; design: expressed in transfected cells; host or cells: primary rat hepatocytes (transient co-transfection, Effectene); conditions: 10 μM Rifampicin, 1 μM CITCO, 1 mM Phenobarbital, 48 h
Experimental: (§1) After four hours, cell culture medium was changed with 1 mL Williams E medium containing Pen/Strep, glutamine and ITS+Premix and the cells were incubated overnight under normal growth condition.
(§2) This was followed by adding 3.2 μL Enhancer and mixing by vortexing for 1 second. […] The cotransfections were followed by adding 3.2 μL Enhancer and mixing by vortexing for 1 second. The transfections/cotransfections were incubated at room temperature for 5 minutes. Then, the mixtures were centrifuged for a few seconds to remove drops from the top of the tube. Next, to each of the mixtures, five μL of Effectene Transfection Reagent was added and the mixtures mixed by vortexing for 10 seconds. The mixtures were then incubated for ten minutes at room temperature to allow transfection complex formation.
(§3) Meanwhile, the growth medium for each of the wells of the 24-well plate containing the cells was removed from the wells and the cells in the wells washed once with 1 mL of growth medium. Then, 350 μL of fresh growth medium was added to each of the wells and 350 μL of growth medium was added to each of the tubes of transfection complexes, which were then mixed and immediately added drop-wise onto the cells in the well. The plates were gently swirled to ensure uniform distribution of the transfection complexes over the cells. […]

[3] = tested on: endogenous rat CAR or PXR; experiment: Primary rat hepatocytes transfected with clone 102-SEAP and pUC19 (control, no nuclear receptor); conditions: clone 102-SEAP + pUC19, 10 μM Rifampicin, 1 μM CITCO, 1 mM Phenobarbital, 48 h
Experimental: as §1, §2, §3

hPXR = target: T2, hPXR (Homo sapiens, UniProt O75469); experiment: Primary rat hepatocytes cotransfected with clone 102-SEAP and hPXR; conditions: 10 μM Rifampicin, 1 μM CITCO, 1 mM Phenobarbital, 48 h
T2 sequence (O75469 1-434): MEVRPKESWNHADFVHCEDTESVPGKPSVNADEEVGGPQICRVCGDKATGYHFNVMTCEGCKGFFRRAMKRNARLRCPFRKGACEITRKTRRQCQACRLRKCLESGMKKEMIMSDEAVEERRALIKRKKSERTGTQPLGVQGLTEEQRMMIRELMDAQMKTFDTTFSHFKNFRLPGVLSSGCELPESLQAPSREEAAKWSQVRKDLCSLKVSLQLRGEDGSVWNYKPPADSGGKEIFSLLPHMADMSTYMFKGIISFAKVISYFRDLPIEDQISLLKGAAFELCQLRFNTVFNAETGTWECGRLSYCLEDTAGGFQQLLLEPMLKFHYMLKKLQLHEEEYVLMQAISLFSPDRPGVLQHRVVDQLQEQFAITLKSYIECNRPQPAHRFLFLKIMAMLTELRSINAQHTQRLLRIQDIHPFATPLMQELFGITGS
Experimental: as §1, §2, §3

Structure (SMILES) | effect on transcription from clone 102-SEAP composite promoter (hCAR [1]) | effect on transcription from ΔCYP3A4 promoter (hCAR [1]) | other results
CCCOC(=O)c1ccc(O)cc1 [N-propyl-p-hydroxy-benzoate] | not affected | moderate inhibition | –
Clc1ccccc1C(c1ccccc1)(c1ccccc1)n1ccnc1 [Clotrimazole] | inhibitory effect | inhibitory effect | –
Clc1ccc(-c2nc3sccn3c2C=NOCc2ccc(Cl)c(Cl)c2)cc1 [CITCO, 6-(4-Chlorophenyl)imidazo[2,1-b][1,3]thiazole-5-carbaldehyde O-(3,4-dichlorobenzyl)oxime] | – | – | induction of clone 102-SEAP expression via hCAR (hCAR [2]): about 4.2 fold
CCC1(c2ccccc2)C(=O)NC(=O)NC1=O [Phenobarbital] | – | – | induction of clone 102-SEAP without co-transfected nuclear receptor [3]: no response; induction of clone 102-SEAP expression via hPXR (hPXR): about 3.4 fold
CC[C@H](C)C(=O)O[C@H]1C[C@@H](C)C=C2C=C[C@H](C)[C@H](CC[C@@H]3C[C@@H](O)CC(=O)O3)[C@H]21 [Lovastatin] | not affected | – | –
